Blank lines part the entries; values can stand above or below the compound they belong to.
Tests used:
[1] = tested on: chloroquine-sensitive P. falciparum (NF54); experiment: In vitro antimalarial activity ([3H]hypoxanthine incorporation); assay type: cell-based; conditions: for IC50: Plasmodium falciparum, NF54; for IC50 compared with artemisinin: in words
Description: Activity was determined by measuring the incorporation of [^3 H]hypoxanthine, by the methods of Desjardins and Milhouse, with the following modofications, see […].; Haynes, […]. Antimicrob. Agents Chemother., 16:710 (1979); Milhous, W. K.; Weatherly, […].; Antimicrob. Agents Chemother., 27: 525 (1985). […] Parasitemia was maintained at 0.05-3% and doubling time at approximately 15 hours by twice weekly change of medium and replenishment with fresh erythrocytes. […] Sigma-Aldrich #27,043-1). DMSO solutions were diluted 500-fold in medium, serially diluted in 0.2% DMSO in medium (to maintain constant solvent concentration), then 100 μL aliquots were pipetted into microtiter plate wells (Costar 3595). […] Plates included at least 8 wells of no drug controls (4 with and 4 without DMSO) and 4 wells of uninfected erythrocytes. […] Cells were harvested (Brandel MB-48R) onto GF-C glass filters (Brandel). The filters were washed five times with 3 mL water per sample spot, dried under a heat lamp, and counted (Beckman Model LS-6500) in scintillation cocktail (ICN Cytoscint). Decays per minute (dpm) values were downloaded and analyzed (Power MFacintosh 7200/90; Microsoft Excel 5.0), to yield the mean and standard deviation at each drug concentration.

[2] = tested on: murine keratinocyte cell line PE; experiment: growth inhibition of PE cells (MTT assay); assay type: cell-based; conditions: 100 nanomolar
Description: To determine the inhibitory effect of the compositions of the present invention on cell proliferation, screening assays were performed on a murine keratinocyte cell line PE. Cell line PE was chosen for its particular sensitivity to the induction of ornithine decarboxylase (ODC) activity by the extensively characterized tumor promoter TPA. […] PE cell culture medium consisted of Eagle's minimal essential medium without calcium chloride (Whittaker Bioproducts, Walkersville, Mass.) supplemented with 8% chelexed fetal calf serum and 1% antibiotic-antimycotic (Gibco BRL) and the addition of CaCl2 to 0.05 mM Ca^++.
Growth Inhibition. Growth curves, shown in FIGS. 1 and 2, for PE cells treated with calcitriol and the C-10 carbon-substituted dimers 21, 22, 26, 27, and 28 generated by assay for the reduction of the tetrazolium-based compound MTT, see Charmichael, et al., Cancer Res., 47:936-942 (1987). […] PE cells were seeded at a density of 5,000 cells/well in 50 μL of medium into 96-well microtiter plates. Twelve hours later, the medium was removed, and cells were treated with 100 μL of fresh medium into which the appropriate amount of calcitrol or analog dissolved in dimethyl sulfoxide (DMSO) had been added, with the concentration of DMSO held constant at 0.1%. […] At 24-hour intervals following the initial treatment of the cells with compounds, 0.1 mg (50 μL of a 2 mg/mL solution) of MTT was added to each well. After 4 hours, the MTT was removed and DMSO added to dissolve the blue formazan dye. Using a microtiter plate reader, the A505 was then determined and cell number calculated from blank-subtracted absorbance values.

60 cell line panel = experiment: NCI 60 cell line screen, whole panel; assay type: cell-based; conditions: panel
RXF 393 = experiment: cells; conditions: Homo sapiens
EKVX = experiment: NCI 60 cell line screen (SRB), non-small cell lung cancer; assay type: cell-based; conditions: Homo sapiens, read-out: Log10 GI50 (converted)
UACC-62 = experiment: cells; assay type: cell-based; conditions: Homo sapiens, read-out: Log10 TGI (converted)
HL-60(TB) = experiment: cells; conditions: Homo sapiens, HL-60, read-out: Log10 LC50 (converted)
ACHN = experiment: cells; conditions: Homo sapiens
IGROVI = experiment: cells; conditions: 60 cell, read-out: Log10 GI50 (converted)
NCI-H23 = experiment: NCI 60 cell line screen (SRB), non-small cell lung cancer; assay type: cell-based; conditions: Homo sapiens, read-out: Log10 GI50 (converted)
CAKI-1 = experiment: NCI 60 cell line screen (SRB), renal cancer; conditions: Homo sapiens

SMILES: COc1cc(OC)c([C@@H]2O[C@@H]3O[C@@]4(C)CC[C@H]5[C@H](C)CC[C@@H]([C@H]2C)[C@@]35OO4)cc1[C@@H]1O[C@@H]2O[C@@]3(C)CC[C@H]4[C@H](C)CC[C@@H]([C@H]1C)[C@@]24OO3 [Dimer 26]
antiproliferative activity compared with calcitriol [2]: at least as antiproliferative as calcitrol

SMILES: C[C@H]1[C@@H](C#Cc2cccc(C#C[C@H]3O[C@@H]4O[C@@]5(C)CC[C@H]6[C@H](C)CC[C@@H]([C@H]3C)[C@@]46OO5)c2)O[C@@H]2O[C@@]3(C)CC[C@H]4[C@H](C)CC[C@@H]1[C@@]24OO3 [Dimer 27]
antiproliferative activity compared with calcitriol [2]: at least as antiproliferative as calcitrol

SMILES: C[C@H]1[C@@H](C#Cc2ccc(C#C[C@H]3O[C@@H]4O[C@@]5(C)CC[C@H]6[C@H](C)CC[C@@H]([C@H]3C)[C@@]46OO5)cc2)O[C@@H]2O[C@@]3(C)CC[C@H]4[C@H](C)CC[C@@H]1[C@@]24OO3 [Dimer 28]
antiproliferative activity compared with calcitriol [2]: at least as antiproliferative as calcitrol

SMILES: C[C@H]1[C@@H](C#Cc2ccc(Cl)cc2)O[C@@H]2O[C@@]3(C)CC[C@H]4[C@H](C)CC[C@@H]1[C@@]24OO3 [Monomer 9, 10β-(4'-Chlorophenylethynyl) deoxoartemisinin]
IC50 ([1]; survey data (preliminary)): 16 nM

SMILES: COc1ccc([C@@H]2O[C@@H]3O[C@@]4(C)CC[C@H]5[C@H](C)CC[C@@H]([C@H]2C)[C@@]35OO4)c(OC)c1 [Monomer 13]
IC50 ([1]; survey data (preliminary)): 8.9 nM
IC50 compared with artemisinin [1]: lower than that of artemisinin

SMILES: COc1cc(OC)c([C@@H]2O[C@@H]3O[C@@]4(C)CC[C@H]5[C@H](C)CC[C@@H]([C@H]2C)[C@@]35OO4)c(OC)c1 [Monomer 14]
IC50 ([1]; survey data (preliminary)): 11 nM

SMILES: COc1ccc2cc([C@@H]3O[C@@H]4O[C@@]5(C)CC[C@H]6[C@H](C)CC[C@@H]([C@H]3C)[C@@]46OO5)c(OC)cc2c1 [Monomer 15, 10α-(2',7'-dimethoxynaphth-3'-yl)deoxoartemisinin]
IC50 ([1]; survey data (preliminary)): 11 nM

SMILES: CC(=O)O[C@H]1C(=O)[C@@]2(C)[C@H]([C@H](OC(=O)c3ccccc3)[C@]3(O)C[C@H](OC(=O)[C@H](O)[C@@H](NC(=O)c4ccccc4)c4ccccc4)C(C)=C1C3(C)C)[C@]1(OC(C)=O)CO[C@@H]1C[C@@H]2O [Paclitaxel, paclitaxel, reference compound]
GI50 (60 cell line panel; 60 cell, read-out: Log10 GI50 Delta (converted)): 0.0708 nM
Log10 TGI Delta (60 cell line panel): -4.54
Log10 TGI Range (60 cell line panel): 7.20
CC50 (RXF 393; RXF 393, read-out: Log10 LC50 (converted)): > 100000 nM
IC (TGI) (RXF 393; RXF 393, read-out: Log10 TGI): > 100000 nM
GI50 (EKVX): 0.214 nM
IC (TGI) (UACC-62): 19500 nM
CC50 (HL-60(TB)): > 29500 nM
CC50 (ACHN; read-out: Log10 LC50 (converted)): 35500 nM
IC (TGI) (ACHN; read-out: Log10 TGI): 12600 nM
GI50 (IGROVI): 2.45 nM
GI50 (NCI-H23): 0.0759 nM
CC50 (CAKI-1; CAKI-1, read-out: Log10 LC50 (converted)): > 100000 nM
IC (TGI) (CAKI-1; CAKI-1, read-out: Log10 TGI): 91200 nM

Further lines, results first:

IC50 [1]: 5.4 nM
IC50 compared with artemisinin [1]: lower than that of artemisinin
SMILES: CO[C@H]1O[C@@H]2O[C@@]3(C)CC[C@H]4[C@H](C)CC[C@@H]([C@H]1C)[C@@]24OO3 [Artemether, artemether, reference compound]

IC50 ([1]; survey data (preliminary)): 8.4 nM
IC50 compared with artemisinin [1]: lower than that of artemisinin
SMILES: C[C@H]1[C@H](c2cccn2C)O[C@@H]2O[C@@]3(C)CC[C@H]4[C@H](C)CC[C@@H]1[C@@]24OO3 [Monomer 16, 10α-(N-methylpyrrol-2'-yl)deoxoartemisinin]

IC50 ([1]; survey data (preliminary)): 1.5 nM
IC50 compared with artemisinin [1]: lower than that of artemisinin
SMILES: C[C@H]1[C@H](c2ccco2)O[C@@H]2O[C@@]3(C)CC[C@H]4[C@H](C)CC[C@@H]1[C@@]24OO3 [Monomer 17]

Reference: patent publication US6156790A, “C-10 carbon-substituted artemisinin-like trioxane compounds having antimalarial, antiproliferative and antitumor activities” (priority 1997, dated 2000)
